Assay results published in patent US9453242B2, “Method and culture medium for preparing mammalian ovum or embryo in which zona pellucida has been thinned or eliminated, and method for fertilization using mammalian ovum prepared by same method” (NATIONAL UNIVERISTY CORPORATION KUMAMOTO UNIVERSITY, priority 2010, dated 2016).
Like-named read-outs stand apart in the source and are kept apart here.

Tests used:
[1] = tested on: mouse unfertilized ovum (cumulus-oocyte complexes)
Experimental: A sperm suspension is pre-incubated in 90 μl of a TYH culture medium at 37° C. for 30 minutes, and under a stereomicroscope, sperms showing motility are collected, avoiding nonmotile sperms, and used for fertilization. The pre-incubated sperm suspension (10 μl) is added to 90 μl of an HTF culture medium (±glutathione) into which cumulus-oocyte complexes (COCs) have been previously introduced (insemination), and these are co-incubated in an incubator for 5 to 6 hours (37° C., 5% CO2), thereby performing fertilization. Thereafter, the ovum is washed with drops of new HTF, and the ovum is observed. Those judged to parthenogenetic (only one pronucleus is recognized in ooplasm) are excluded, and on the following day (24 hours after insemination), only 2-cell stage embryos are selected, and fertilization rate is determined according to the following formula. In vitro fertilization rate (%)=(number of 2-cell stage embryo)/(number of 2-cell stage embryo+number of unfertilized ovum)×100
According to the ordinary method as described above, fresh sperms and frozen sperms of C57BL/6J mice and refrigerated sperms (refrigerated for 2 days) of ICR mice were used to prepare sperm suspensions, which were used for conducting in vitro fertilization. Further, according to the ordinary method as described above, mouse fresh unfertilized ovums were prepared and cumulus-oocyte complexes were obtained.
The HTF culture medium was prepared according to the composition table described above. To the prepared HTF culture medium was added reduced glutathione so that its concentration was 1 mM (0.307 mg/ml), to prepare a glutathione-containing culture medium. Specifically, the HTF culture medium was prepared according to the composition table, and the culture medium was enclosed in an amount of 5 ml for each operation into an ample (component A). Further, 30.7 mg of reduced glutathione (available from SIGMA) and 593.8 mg of NaCl were mixed, then, the mixture was dispensed in one-time use amount (glutathione 1.535 mg/mixture 31.225 mg) (component B). Until use, these reagents were refrigerated, and directly before use, the component A and the component B were mixed and used for insemination. As the control, only the component A (THF culture medium containing no glutathione added) was used.
Specifically, into 90 μl of a HTF culture medium (glutathione concentration: 1 mM) containing cumulus-oocyte complexes (COCs) in a dish were added sperm suspensions (collected motile sperms) of fresh sperms, frozen sperms and refrigerated sperms each in an amount of 10 μl, and fertilization was conducted and fertilization rate was determined according to the above-described theory. An HTF culture medium containing no glutathione was used as the control.
Fertilization rate was investigated using various reduced glutathione concentrations, in the same manner as in Example 1. As the sperm, frozen sperms of C57BL/6J mice were used, and processed according to FIG. 1.
Regarding the sperms, fresh sperms and frozen sperms pre-incubated with MBCD were used in performing fertilization. The concentration of glutathione in an HTF culture medium was 0.25 mM in the case of fresh sperms and 1 mM in the case of frozen sperms. The sperms were pre-incubated with a MBCD-containing TYH culture medium (no glutathione) before fertilization, in the same manner as in Example 3. The pre-incubation time was 1 hour in the case of fresh sperms and 30 minutes in the case of frozen sperms.
The sperms were pre-incubated with a MBCD-containing TYH culture medium (no glutathione) before fertilization, in the same manner as in Example 3. The pre-incubation time was 1 hour.

[2] = tested on: zona pellucida of a mouse unfertilized ovum; assay: Swelling of zona pellucida (area in zona pellucida) of unfertilized ovum; type: cell-based; conditions: 37° C., 6 hours
Experimental: Further, the influence of glutathione on swelling of zona pellucida was confirmed. […] Preparation of ovum” were treated with HTF culture media containing glutathione at various concentration at 37° C. for 6 hours, then, the area in zona pellucida was photographed under a microscope and measured by an image analysis software. The conditions of zona pellucida at glutathione concentrations of 0 mM, 1 mM, 2 mM and 10 mM were observed by an invert microscope.
The influence of other reducing agents (DTT, ascorbic acid (VC) and epicatechin (EC)) exerted on thinning and swelling of zona pellucida was confirmed in the same manner as in Example 2. The extent of swelling of the zona pellucida of an unfertilized ovum by the concentration of each reducing agent was photographed under a microscope, and determined according to the following formula. % Relative area in ZP=(area of zona pellucida in each experiment/area of zona pellucida at 0 mM)×100

[3] = tested on: protein thiol in zona pellucida; conditions: glutathione 0.25 to 2.0 mM, 37° C., 1 hour; Alexa Fluor 488 C5-maleimide
Experimental: Mouse fresh unfertilized ovums in which cumulus cells had been removed prepared according to the above-described “1. Preparation of oocyte” were prepared, then, 100 μl of an HTF culture medium containing glutathione at various concentrations (0, 0.25, 0.5, 0.75, 1.0, 1.25, 1.5 and 2.0 mM) was dropped onto the bottom of a petri dish, and 50 embryos were inserted into this, and treated at 37° C. for 1 hour. Thereafter, a protein thiol in zona pellucida was detected by using a thiol-reactive fluorescent dye (Alexa Fluor 488 C5-maleimide).

[4] = tested on: zona pellucida-eliminated ovum; conditions: frozen C57BL/6 sperms
[5] = tested on: 2-cell stage embryos transplanted into female mice; conditions: fertilization and incubation in HTF with 1 mM glutathione; frozen C57BL/6J sperms
Excerpt: As the receptive female, ICR mice are used, and on the day before transplantation, external genitals are observed and those in the proestrus stage are selected and allowed to live together with vasoligated males. On the following day, those showing vaginal plug are used as the receptive female (on day 1 of pseudopregnancy). The skin and abdominal wall of the anesthetized receptive female are incised, and part of ovary, oviduct and uterus is exposed to the outside of the body through the incised portion, and fat adhered to ovary is fixed by a clamp. A 200 μl drop for transplantation is produced at the center of a dish, and embryos to be transplanted (20/individual) are transferred into the drop for transplantation. Next, 10 embryos are sucked together with a small amount of an incubation solution into a transplantation capillary. About ½ to ⅔ of the circumference of oviduct is incised, and the capillary containing embryos is inserted through the incised portion toward ampulla of oviduct and embryos are transplanted. Also into the opposite oviduct, embryos are transplanted by the same operation procedure.
The offspring rate (implanting rate) after embryo transplantation is determined according to the following formula. Offspring development rate (%)=(number of offspring)/(number of transplanted embryo)×100 […]

**Q.** Which “fertilization rate (%)” value ([1]; 129T2/SvEmsJ, cryopreserved sperms pre-incubated with MBCD, glutathione 1 mM) does the source give for `N[C@@H](CCC(=O)N[C@@H](CS)C(=O)NCC(=O)O)C(=O)O` [glutathione, reduced glutathione] here?
**A.** 82.1%

**Q.** What about the “fertilization rate (%)” value ([1]; 129T2/SvEmsJ, fresh sperms pre-incubated with MBCD, glutathione 0.25 mM) of the same molecule?
**A.** 84.9%

**Q.** And the “fertilization rate (%)” value ([1]; B6C3F1, cryopreserved sperms pre-incubated with MBCD, glutathione 1 mM)?
**A.** 87.6%

**Q.** What about the “fertilization rate (%)” value ([1]; B6C3F1, fresh sperms pre-incubated with MBCD, glutathione 0.25 mM) of the same molecule?
**A.** 97.7%

**Q.** What about the “fertilization rate (%)” value ([1]; BALB/c, cryopreserved sperms pre-incubated with MBCD, glutathione 1 mM) of the same molecule?
**A.** 68.3%

**Q.** What about the “fertilization rate (%)” value ([1]; BALB/c, fresh sperms pre-incubated with MBCD, glutathione 0.25 mM) of the same molecule?
**A.** 74.7%

**Q.** What about the “fertilization rate (%)” value ([1]; BDF1, cryopreserved sperms pre-incubated with MBCD, glutathione 1 mM) of the same molecule?
**A.** 98.3%

**Q.** And the “fertilization rate (%)” value ([1]; BDF1, fresh sperms pre-incubated with MBCD, glutathione 0.25 mM)?
**A.** 94.2%

**Q.** And the “fertilization rate (%)” value ([1]; C3H/He, cryopreserved sperms pre-incubated with MBCD, glutathione 1 mM)?
**A.** 98.0%

**Q.** What about the “fertilization rate (%)” value ([1]; C3H/He, fresh sperms pre-incubated with MBCD, glutathione 0.25 mM) of the same molecule?
**A.** 97.5%

**Q.** And the “fertilization rate (%)” value ([1]; C57BL/6J, cryopreserved sperms pre-incubated with MBCD, glutathione 1 mM)?
**A.** 97.9%

**Q.** What about the “fertilization rate (%)” value ([1]; C57BL/6J, fresh sperms pre-incubated with MBCD, glutathione 0.25 mM) of the same molecule?
**A.** 95.6%

**Q.** And the “fertilization rate (%)” value ([1]; C57BL/6N, cryopreserved sperms pre-incubated with MBCD, glutathione 1 mM)?
**A.** 90.9%

**Q.** And the “fertilization rate (%)” value ([1]; C57BL/6N, fresh sperms pre-incubated with MBCD, glutathione 0.25 mM)?
**A.** 90.9%

**Q.** And the “fertilization rate (%)” value ([1]; DBA/2N, cryopreserved sperms pre-incubated with MBCD, glutathione 1 mM)?
**A.** 95.8%

**Q.** What about the “fertilization rate (%)” value ([1]; DBA/2N, fresh sperms pre-incubated with MBCD, glutathione 0.25 mM) of the same molecule?
**A.** 95.2%

**Q.** And the “fertilization rate (%)” value ([1]; ICR, cryopreserved sperms pre-incubated with MBCD, glutathione 1 mM)?
**A.** 94.9%

**Q.** What about the “fertilization rate (%)” value ([1]; ICR, fresh sperms pre-incubated with MBCD, glutathione 0.25 mM) of the same molecule?
**A.** 93.8%

**Q.** And the “reduced glutathione concentration giving remarkable improvement in fertilization rate” value ([1]; fresh sperms)?
**A.** ≥ 0.075 mg/mL

**Q.** What about the “fertilization rate (%)” value ([1]; fresh sperms of C57BL/6J mice, glutathione 1 mM in HTF) of the same molecule?
**A.** 82.5%

**Q.** What about the “effect on fertilization rate” value ([1]; fresh sperms, various lineages, glutathione 0.25 mM) of the same molecule?
**A.** sufficient improvement in fertilization rate

**Q.** What about the “glutathione concentration at which improvement in fertilization rate was confirmed” value ([1]; frozen C57BL/6J sperms) of the same molecule?
**A.** ≥ 0.5 mM

**Q.** What about the “fertilization rate (%)” value ([1]; frozen sperms of C57BL/6J mice, glutathione 1 mM in HTF) of the same molecule?
**A.** 92.1%

**Q.** And the “effect on fertilization rate” value ([1]; frozen sperms, all mouse lineages, glutathione 1 mM)?
**A.** remarkable improvement in fertilization rate for frozen sperms

**Q.** What about the “number of 2-cell stage embryo(%)” value ([1]; glutathione 0.25 mM, frozen C57BL/6J sperms) of the same molecule?
**A.** 67%

**Q.** What about the “number of 2-cell stage embryo” value ([1]; glutathione 0.25 mM, frozen C57BL/6J sperms, 279 oocytes) of the same molecule?
**A.** 187

**Q.** And the “number of 2-cell stage embryo(%)” value ([1]; glutathione 0.50 mM, frozen C57BL/6J sperms)?
**A.** 79%

**Q.** What about the “number of 2-cell stage embryo” value ([1]; glutathione 0.50 mM, frozen C57BL/6J sperms, 316 oocytes) of the same molecule?
**A.** 251

**Q.** And the “number of 2-cell stage embryo(%)” value ([1]; glutathione 0.75 mM, frozen C57BL/6J sperms)?
**A.** 82%

**Q.** What about the “number of 2-cell stage embryo” value ([1]; glutathione 0.75 mM, frozen C57BL/6J sperms, 307 oocytes) of the same molecule?
**A.** 252

**Q.** And the “effect on fertilization rate” value ([1]; glutathione 1 mM, fresh, frozen and refrigerated sperms)?
**A.** significant improvement in fertilization rate

**Q.** What about the “number of 2-cell stage embryo(%)” value ([1]; glutathione 1.00 mM, frozen C57BL/6J sperms) of the same molecule?
**A.** 92%

**Q.** What about the “number of 2-cell stage embryo” value ([1]; glutathione 1.00 mM, frozen C57BL/6J sperms, 276 oocytes) of the same molecule?
**A.** 254

**Q.** What about the “number of 2-cell stage embryo(%)” value ([1]; glutathione 1.25 mM, frozen C57BL/6J sperms) of the same molecule?
**A.** 93%

**Q.** And the “number of 2-cell stage embryo” value ([1]; glutathione 1.25 mM, frozen C57BL/6J sperms, 292 oocytes)?
**A.** 272

**Q.** What about the “number of 2-cell stage embryo(%)” value ([1]; glutathione 1.50 mM, frozen C57BL/6J sperms) of the same molecule?
**A.** 89%

**Q.** What about the “number of 2-cell stage embryo” value ([1]; glutathione 1.50 mM, frozen C57BL/6J sperms, 294 oocytes) of the same molecule?
**A.** 262

**Q.** What about the “number of 2-cell stage embryo(%)” value ([1]; glutathione 2.00 mM, frozen C57BL/6J sperms) of the same molecule?
**A.** 92%

**Q.** And the “number of 2-cell stage embryo” value ([1]; glutathione 2.00 mM, frozen C57BL/6J sperms, 309 oocytes)?
**A.** 285

**Q.** What about the “number of 2-cell stage embryo(%)” value ([1]; glutathione 5.00 mM, frozen C57BL/6J sperms) of the same molecule?
**A.** 86%

**Q.** What about the “number of 2-cell stage embryo” value ([1]; glutathione 5.00 mM, frozen C57BL/6J sperms, 292 oocytes) of the same molecule?
**A.** 251

**Q.** What about the “number of 2-cell stage embryo(%)” value ([1]; glutathione 10.00 mM, frozen C57BL/6J sperms) of the same molecule?
**A.** 81%

**Q.** And the “number of 2-cell stage embryo” value ([1]; glutathione 10.00 mM, frozen C57BL/6J sperms, 341 oocytes)?
**A.** 276

**Q.** What about the “fertilization rate (%)” value ([1]; refrigerated sperms (2 days) of ICR mice, glutathione 1 mM in HTF) of the same molecule?
**A.** 63.9%

**Q.** What about the fertilization rate ([1]; refrigerated sperms of C57BL/6J mice pre-incubated with MBCD 1 hour, glutathione 0.5 mM) of the same molecule?
**A.** 85.4%

**Q.** What about the “glutathione concentration at which swelling of zona pellucida was recognized remarkably” value [2] of the same molecule?
**A.** ≥ 2 mM

**Q.** And the “swelling of zona pellucida” value ([2]; HTF with glutathione at various concentration)?
**A.** swelling of zona pellucida was confirmed depending on the glutathione concentration

**Q.** What about the “fluorescent intensity in zona pellucida (free thiol group)” value [3] of the same molecule?
**A.** the fluorescent intensity in zona pellucida increased depending on the concentration of glutathione

**Q.** And the “fertilization and development of zona pellucida-eliminated ovum” value ([4]; glutathione 100 mM pre-treatment)?
**A.** fertilization occurred and the development of an ovum (ovum division) was confirmed

**Q.** And the “embryos developed to the blastocyst stage” value ([4]; of 70 zona pellucida-eliminated embryos (glutathione 100 mM))?
**A.** 66

**Q.** What about the offspring development rate [5] of the same molecule?
**A.** 53.8%

**Q.** What about the “offspring development rate (offspring/transplanted embryos)” value [5] of the same molecule?
**A.** 43/80
